# Data reported in the NIST ThermoML archive (doi:10.1016/j.tca.2014.11.008).
# ± gives the expanded uncertainty stated by the source.
# Details: Crystal; visual observation
structure (smiles),measurement,value
O=C(O)c1ccsc1 [β-thiophenecarboxylic acid],Normal melting temperature,138.70 ± 1.3 °C
